Test [1] is filed under the species Rattus norvegicus. Kind of test: Antagonist activity at AT1 Ang II receptor in noradrenaline sensitized rat aorta assessed as inhibition of angiotensin II induced contraction at 10 uM preincubated for 15 mins followed by angiotensin II addition. To be noted: filed as antagonist. The format is tissue-based.
The species entered for test [2] is Rattus norvegicus. Put plainly: Antagonist activity at AT1 Ang II receptor in rat kidney assessed as reduction in angiotensin II induced renal perfusion pressure at 1 uM measured after […]. The format is tissue-based. The settings on record: time […].
Test [3] has as its system Aorta. Kind of test: Vasorelaxant activity in rat aorta assessed as relaxation of noradrenaline-induced vascular contraction at 10 uM relative to control. The format is functional. Further details: scale not given: the % may be the effect or the level left.
For test [4], the system named is Aorta. Put plainly: Vasorelaxant activity in rat aorta assessed as relaxation of noradrenaline-induced vascular contraction at 10 uM incubated in presence of endothelium. The format is functional, tissue-based.
Test [5] relates to Aorta. Kind of test: Vasorelaxant activity in rat aorta assessed as relaxation of noradrenaline-induced vascular contraction at 10 uM incubated in absence of endothelium. The format is functional, tissue-based.
Test [6] concerns the target Voltage-gated L-type calcium channel (Rattus norvegicus, UniProt P22002+Q02485+P27732). Kind of test: Inhibition of L-type calcium channel in rat aorta assessed as vasorelaxation of thoracic aorta in presence of endothelium. The format is tissue-based.
For test [7], the system named is Rattus norvegicus. Kind of test: Antihypertensive activity in spontaneously hypertensive rat assessed as reduction in systolic blood pressure at 20 mg/kg, ip measured for 6 hrs by tail-cuff method. The format is functional, organism-based.
The test system of test [8] is Rattus norvegicus. Put plainly: Antihypertensive activity in spontaneously hypertensive rat assessed as reduction in systolic blood pressure at 5 mg/kg, ip measured for 6 hrs by tail-cuff method. The format is functional, organism-based.

Structures are written as SMILES. Activity calls are given as the source filed them. The calls are words filed in the database; no cut-off is given here.

For `O=C(O)c1ccc2[nH]c(SCc3ccc(C(=O)Nc4nnn[nH]4)cc3)nc2c1`, the result in the test filed under Rattus norvegicus [1] was Active. Moreover, in the test filed under Rattus norvegicus [2], the result was inactive.
`O=[N+]([O-])c1ccc2[nH]c(SCc3ccc(-c4ccccc4-c4nnn[nH]4)cc3)nc2c1`: in the test filed under Rattus norvegicus [1], the result was Active. The outcome in the test listed under Rattus norvegicus [2] was inactive.
The matching figures for `Cc1ccc2[nH]c(SCc3ccc(C(=O)Nc4nnn[nH]4)cc3)nc2c1`: “Active” and “inactive”.
For the molecule `O=C(O)c1cccc2[nH]c(SCc3ccc(-c4ccccc4-c4nnn[nH]4)cc3)nc12`, the Activity in the test with Aorta [3] is on record as 57.3%. Also, the outcome with Aorta [4] and in the test listed under Rattus norvegicus [1] was Active. Further, the result in the test filed under Rattus norvegicus [2] was inactive.
By IC50 is commonly meant the midpoint of a concentration-inhibition curve. Turning to `O=C(O)c1ccc2[nH]c(SCc3ccc(-c4ccccc4-c4nnn[nH]4)cc3)nc2c1`, the Activity with Aorta [3] was determined as 88.7%. The result with Aorta [4], in the test with Aorta [5], in the test filed under Rattus norvegicus [1], in the test filed under Rattus norvegicus [2] (filed as antagonist) and in the test on Rattus norvegicus [7] was Active. The IC50 in test [6] is 570 nM.
As to `O=C(Nc1nnn[nH]1)c1ccc(CSc2nc3cc([N+](=O)[O-])ccc3[nH]2)cc1`, the result in the test filed under Rattus norvegicus [1] was Active. For the same molecule, the result in the test listed under Rattus norvegicus [2] was inactive.
As to `O=C(Nc1nnn[nH]1)c1ccc(CSc2nc3c(C(=O)O)cccc3[nH]2)cc1`, in the test filed under Rattus norvegicus [1], the outcome was Active. The result in the test listed under Rattus norvegicus [2] was inactive.
Consider `CCCc1nc2c(C)cc(-c3nc4ccccc4n3C)cc2n1Cc1ccc(-c2ccccc2C(=O)O)cc1`, for which the result in the test filed under Rattus norvegicus [1], in the test filed under Rattus norvegicus [2] (filed as antagonist) and in the test on Rattus norvegicus [8] was Active.

For the origin of these results see ChEMBL document CHEMBL5584258, “Synthesis, biosimulation and pharmacological evaluation of benzimidazole derivatives with antihypertensive multitarget effect” (Bioorg Med Chem Lett, 2024).
